What was measured:
[1] = -Log C was determined by performing the electroshock minimum test; type: ADME; set-up: unit not given here
[2] = -Log C was determined by performing the foot shock test; type: ADME; set-up: unit not given here
[3] = -Log C was determined by performing the incl screen test; type: ADME; set-up: unit not given here
[4] = -Log C was determined by performing the maximum electroshock test; type: ADME; set-up: unit not given here
[5] = -Log C was determined by performing the pentylenetetrazole test; type: ADME; set-up: unit not given here
Aspergillus niger = assay: The compound was evaluated for activity against Aspergillus niger; type: functional
Aspergillus oryzae = assay: The compound was evaluated for activity against Aspergillus oryzae; type: functional; set-up: unit not given here
Albifimbria verrucaria [6] = assay: (§1) The compound was evaluated for activity against Myrothecium verrucaria; type: functional; set-up: unit not given here
Trichoderma viride = assay: The compound was evaluated for activity against Trichoderma viride; type: functional; set-up: unit not given here
Trichophyton benhamiae = assay: The compound was evaluated for activity against Trichophyton mentagrophytes; type: functional, Arthroderma benhamiae
Albifimbria verrucaria [7] = assay: as §1; type: functional

CN(C)c1ccc2c(c1)C(c1ccccc1)=NCC(=O)N2C
-Log C [1]: 0.06 | -Log C [2]: 0.87 | -Log C [3]: 0.29 | -Log C [4]: 0.5 | -Log C [5]: 1.7

O=[N+]([O-])c1cc(I)c2cccnc2c1O
-Log C (Aspergillus niger): 0.7 mM l-1 | -Log C (Aspergillus oryzae): 0.57 | -Log C (Albifimbria verrucaria [6]): 0.6 | -Log C (Trichoderma viride): 0.89 | -Log C (Trichophyton benhamiae): 1.89 mM l-1

O=[N+]([O-])c1cc(F)c2cccnc2c1O
-Log C (Aspergillus niger): 1.06 mM l-1 | -Log C (Aspergillus oryzae): 0.85 | -Log C (Albifimbria verrucaria [6]): 1.02 | -Log C (Trichoderma viride): 1.06 | -Log C (Trichophyton benhamiae): 1.72 mM l-1

CC(C)(C)N1C(=O)CN=C(c2ccccc2)c2cc(Cl)ccc21
-Log C [1]: 0.39 | -Log C [2]: 0.51 | -Log C [3]: 0.19 | -Log C [4]: 0.26 | -Log C [5]: 0.39

Oc1c(Br)ccc2cccnc12
-Log C (Aspergillus niger): 1.89 mM l-1 | -Log C (Aspergillus oryzae): 1.89 | -Log C (Albifimbria verrucaria [6]): 2.35 | -Log C (Trichoderma viride): 2.35 | -Log C (Trichophyton benhamiae): 2.35 mM l-1

Oc1c(F)cc(I)c2cccnc12
-Log C (Aspergillus niger): 2 mM l-1 | -Log C (Aspergillus oryzae): 1.46 | -Log C (Albifimbria verrucaria [6]): 2.46 | -Log C (Trichoderma viride): 2 | -Log C (Trichophyton benhamiae): 2.46 mM l-1

Oc1c(F)cc(Cl)c2cccnc12
-Log C (Aspergillus niger): 2 mM l-1 | -Log C (Aspergillus oryzae): 1.7 | -Log C (Albifimbria verrucaria [6]): 2.29 | -Log C (Trichoderma viride): 2.29 | -Log C (Trichophyton benhamiae): 2.3 mM l-1

Oc1c(Cl)cc(Br)c2cccnc12
-Log C (Aspergillus niger): 2.11 mM l-1 | -Log C (Aspergillus oryzae): 1.82 | -Log C (Albifimbria verrucaria [6]): 2.41 | -Log C (Trichoderma viride): 2.41 | -Log C (Trichophyton benhamiae): 2.41 mM l-1

Oc1c(F)ccc2cccnc12
-Log C (Aspergillus niger): 1.32 mM l-1 | -Log C (Albifimbria verrucaria [7]): 1.75 mM l-1 | -Log C (Trichophyton benhamiae): 1.92 mM l-1

CN1C(=O)CN=C(c2ccccc2)c2cc(C#N)ccc21
-Log C [1]: 0.14 | -Log C [2]: 1.74 | -Log C [3]: 1.14 | -Log C [4]: 1.29 | -Log C [5]: 2.36

COc1ccccc1C1=NCC(=O)Nc2ccc(Cl)cc21
-Log C [1]: 0.35 | -Log C [2]: 0.48 | -Log C [3]: 0 | -Log C [4]: 1 | -Log C [5]: 1.6

Cc1ccccc1C1=NCC(=O)Nc2ccc(Cl)cc21
-Log C [1]: 0.19 | -Log C [2]: 0.45 | -Log C [3]: 0.28 | -Log C [4]: 1.13 | -Log C [5]: 1.57

CCN1C(=O)CN=C(c2ccccc2)c2cc(Cl)ccc21
-Log C [1]: 0.3 | -Log C [2]: 1.17 | -Log C [3]: 0.6 | -Log C [4]: 1.56 | -Log C [5]: 1.87

Cc1ccc2c(c1)C(c1ccccc1)=NCC(=O)N2
-Log C [1]: 0.51 | -Log C [2]: 0.4 | -Log C [3]: 0.4 | -Log C [4]: 1.75 | -Log C [5]: 1.55

O=[N+]([O-])c1ccc2cccnc2c1O
-Log C (Aspergillus niger): 0.48 mM l-1 | -Log C (Aspergillus oryzae): 0.28 | -Log C (Albifimbria verrucaria [6]): 1.13 | -Log C (Trichoderma viride): 1.28 | -Log C (Trichophyton benhamiae): 1.8 mM l-1

O=[N+]([O-])c1cc(F)c(O)c2ncccc12
-Log C (Aspergillus niger): 0.44 mM l-1 | -Log C (Aspergillus oryzae): 0.68 | -Log C (Albifimbria verrucaria [6]): 1.21 | -Log C (Trichoderma viride): 1.32 | -Log C (Trichophyton benhamiae): 2.32 mM l-1

Oc1c(I)cc(Br)c2cccnc12
-Log C (Aspergillus niger): 2.07 mM l-1 | -Log C (Aspergillus oryzae): 1.24 | -Log C (Albifimbria verrucaria [6]): 2.24 | -Log C (Trichoderma viride): 1.96 | -Log C (Trichophyton benhamiae): 2.24 mM l-1

N#Cc1ccc2c(c1)C(c1ccccc1)=NCC(=O)N2
-Log C [1]: 0.41 | -Log C [2]: 0.82 | -Log C [3]: 0.54 | -Log C [4]: 0.89 | -Log C [5]: 2.3

CN(C)c1ccc2c(c1)C(c1ccccc1)=NCC(=O)N2
-Log C [1]: 0.38 | -Log C [2]: 0.45 | -Log C [3]: 0.25 | -Log C [4]: 0.12 | -Log C [5]: 0.82

O=C1CN=C(c2ccccc2)c2cc(C(F)(F)F)ccc2N1 [RO-052904]
-Log C [1]: 1.16 | -Log C [2]: 1.48 | -Log C [3]: 1.48 | -Log C [4]: 1.78 | -Log C [5]: 2.48

Source: ChEMBL document CHEMBL1121427, “Decomposition of pharmacological activity indices into mutually independent components using principal component analysis” (J Med Chem, 1980)
